We go through one sequence from US9593146B2, “CD44v6-derived peptides for treating metastasizing cancer” (AMCURE GMBH, priority 2012, dated 2017).

In one assay the test system is 4T1 cells. As to the kind of experiment: Syngeneic orthotopic 4T1 mammary carcinoma model in BALB/c mice. The assay is classed as in vivo. Here is the method:
FIG. 26: Treatment with the v6 14mer reduces growth of the primary tumor and macroscopic metastases formation in the lung. 1×10^6 murine 4T1 cells per mouse were diluted in 50 μl RPMI plus 50 μl Matrigel and injected into the 6th mammary fat pad of 10 female BALB/c mice. One week after the injection, the mice were either injected intraperitoneally with 20 μg of the murine v6 14mer dissolved in 100 μl PBS or with 20 μg of control peptide (rat v6 14mer) dissolved in 100 μl PBS. The injection was performed 3 times per week for two weeks. After 2 weeks the mice were sacrificed and the primary tumors and the lungs were extracted. A: Overall reduction of the tumor volume in the v6 peptide treated group. B: Immunofluorescent staining for the endothelial marker CD34 to monitor vascularization of the primary tumor. Graphic representation of the reduction of the total vessel area. C: The v6 peptides led to a reduction in macroscopic lung metastasis. The black arrows mark examples for metastases. The scale bar corresponds to a size of 1 cm. Statistical evaluation of the average number of lung metastases. Significance was calculated using Student's t test: p*<0.01; **p<0.005. Each group consisted of 5 animals.
The effect of the CD44v6 14mer was tested in a syngeneic mouse model by orthotopic injection of the murine mammary carcinoma cells 4T1. 4T1 cells were originally derived from a spontaneously arising BALB/c mammary tumor. When introduced orthotopically, 4T1 cells grow rapidly at the primary site and form metastases in the lung and the lymph nodes within a period of 3-6 weeks. The tumor growth and metastatic spreading of 4T1 cells in BALB/c mice very closely mimics human breast cancer stage IV.
The 4T1 cells were injected orthotopically into the 6th mammary fat pad. Two groups of 5 animals each with the implanted tumor cells were then used for the experiment. One group was treated with the v6 14mer peptide, one with a control (rat) peptide. The injection of the peptide was performed 3 times per week and planned for three to four weeks but had to be stopped after two weeks as the control group suffered from large tumors.

The test system of the next assay is HUVECs and HAOECs. As to the kind of experiment: Scratch closure assay, EC migration. The settings on record: 24 hours. The assay is classed as cell-based, human. Here is the method: FIG. 18: CD44v6 is required for EC migration. HUVECs and HAOECs were grown to confluence and a wound was made into the cell monolayer with a sterile pipette tip. After washing the cells were incubated with the antibody against CD44v6, the CD44v6 peptide (human v614mer) or the control peptide as indicated. The ligands HGF, VEGF-A165 or VEGF-A121 were added and migration of the ECs was analysed after 24 hours. The numbers indicate the percentage of free area in the scratch area quantified by the computer program ImageJ.
In this assay the requirement for CD44v6 for cell migration was tested. In a scratch closure assay migration of either vein or artery ECs was tested. These cells were grown to confluence and a scratch was made into the confluent monolayer using a sterile pipette-tip. The cells lining the scratch border started to migrate into this empty space in order to close the gap. In presence of either HGF, VEGF-A165, or VEGF-A121 the cells migrated faster than in absence of the ligands and the scratch was closed within one day.

A further assay concerns hVEGF. Kind of assay: Human VEGF in cell culture supernatant of L3.6pl cells. The assay is classed as cell-based. The settings on record: 200 ng/ml peptide in the culture medium, 5 days. Here is the method: Determination of human HGF and VEGF levels in cell culture medium of L3.6pl cells were performed using the Quantikine Human HGF Immunoassay and Quantikine Human VEGF Immunoassay from Roche (Mannheim, GER) and R&D Systems (Wiesbaden, Germany). For this purpose 3×10^6 cells were cultured for 5 days in a 15 cm plate in the presence of the respective peptides as indicated. The supernatant (20 ml) was centrifuged (1200 rpm) and the assay was performed according to manufacturer's instructions.

For a further assay, the system named is Met. As to the kind of experiment: HGF induced activation of Met and Erk in L3.6pl, HeLa and HT29 cells. The format is cell-based, human. The settings on record: added before induction with HGF. On the procedure: FIG. 14: A: Activation of Met and signal transduction induced by HGF depends on CD44v6 in L3.6pl cells. L3.6pl cells were treated with the human v6 peptide (human v6 14mer) or the rat v6 peptide as control prior to induction with 10 ng/ml HGF. Activation of Met and ERK was determined in western blot. The numbers refer to the fold induction. The experiment was repeated at least 5 times. B: Activation of c-Met and signal transduction induced by HGF depends on CD44v6 HeLa cells. Starved HeLa cells respectively HT29 cells were incubated with the v6 peptide (human v6 14mer) or a control peptide for 10 minutes at 37° C. and then induced with 25 ng/ml of HGF for the indicated time points. Cells were then either lysed and the lysates were subjected to Western Blot analysis for phospho-Met and Met. C: Activation of c-Met and signal transduction induced by HGF depends on CD44v6 in HT29 cells. HGF-induced c-Met and Erk phosphorylation in HT29 was determined as described above using phospho-specific antibodies. […]
The contribution of CD44v6 to Met signaling in the human epithelial pancreatic cancer cells L3.6pl (derived from Colo 357), the cervix carcinoma cells HeLa and the colon cancer cells HT29 were analysed using the CD44v6 peptide (v6 14mer; v6 5mer tested as well, data not shown).

A further assay relates to Met and ERK. Kind of assay: HGF induced activation of Met and ERK in L3.6pl cells (Western blot). The assay is classed as cell-based, human. The following applies: L3.6pl cells, peptide prior to induction with 10 ng/ml HGF. Here is the method:
Serum-starved cells (24 hours) were induced with the growth factor HGF (10 ng/mL) at 37° C. for 5 minutes. Where indicated, the cells were treated with peptides (100 ng/ml) prior to induction at 37° C. for 10 minutes (100 ng/mL CD44v6 peptide or control peptide). Following the induction with HGF, cells were washed with ice-cold phosphate-buffered saline (PBS). To detect activated Met and Erk, cells were lysed in sodium dodecyl sulfate (SDS)-sample buffer containing 100 mM dithiothreitol (DTT), boiled and subjected to western blot analysis using antibodies against phospho-Met and ERK. The loading controls were performed on the same blot after stripping (62.5 mM Tris, pH 6.8, 2% SDS, 0.8% DTT) by probing with the Met respectively ERK antibody. Blots were stained using the enhanced chemiluminescence system (Thermo Fisher Scientific, Schwerte, Germany). Bands in western blot analysis were quantified with the program Image J (National Institutes of Health).
(In general: Immunoblotting shows a protein as a band on a membrane.)

The mark [1] stands for this setting: murine v6 14mer 20 μg i.p. 3 times per week for two weeks.

For “KEQWFGNRWHEGYR [human 14mer, human CD44v6 14mer peptide]”, the “macroscopic lung metastases per animal” value in the assay on 4T1 cells (20 μg i.p. 3 times per week for two weeks, 5 animals per group) was “three animals showed no macroscopic metastases at all, whereas two animals had only one metastase”. Also, in the assay on 4T1 cells (setting [1]), the primary tumor size result was “significant decrease of tumor size” and the “total number of blood vessels (anti-CD34 staining)” value is on record as “significantly reduced”. Further, in the assay on HUVECs and HAOECs, the “EC migration induced by HGF, VEGF-A165 or VEGF-A121” value was “reduced to basal levels”. In addition, the “hVEGF secretion by L3.6pl cells” value in the assay with hVEGF is reported as “can be blocked”. Also, the “activation of Met and of its downstream target Erk” value in the assay with Met is “able to prevent activation of Met and of its downstream target Erk”. Moreover, the “Phosphorylation of Met and ERK” value in the assay on Met and ERK is on record as “inhibited”.
